{
  "source": "patent US11859248B2",
  "about": "“Nucleic acid modification and identification method” (IMBA—INSTITUT FÜR MOLEKULARE BIOTECHNOLOGIE GMBH, priority 2017, dated 2024)",
  "key": {"MYC [1]": {"test_system": "MYC", "assay": "Auxin-inducible degradation of AID-tagged MYC in HCT116 cells (immunoblotting)", "type": "cell-based, human", "details": "TIR1-expressing HCT116 MYC-AID cells"}, "BRD4": {"test_system": "BRD4", "assay": "Auxin-inducible degradation of AID-tagged BRD4 in K562 cells (immunoblotting)", "type": "cell-based, human", "details": "AID-tagged K562 cells expressing Tir1"}, "MYC [2]": {"test_system": "MYC", "assay": "Auxin-inducible degradation of AID-tagged MYC in K562 cells (immunoblotting)", "type": "cell-based, human", "details": "Tir1-expressing"}, "[3]": {"test_system": "reverse transcriptases (Superscript II, Superscript III, Quant-seq RT)", "assay": "Reverse transcription of synthetic thiol-nucleotide-containing RNA followed by high-throughput sequencing", "type": "biochemical", "details": "s^6G-containing RNA", "method": "Primer extension assays were essentially performed as described previously by Nilsen et al. (Cold Spring Harb Protoc. 2013, 1182-1185). Briefly, template RNA oligonucleotides (5L-let-7-3L or 5L-let-7-s^4Up9-3L; Dharmacon; see Table for sequences) were deprotected according to the instructions of the manufacturer and purified by denaturing polyacrylamide gel-elution. 100 μM purified RNA oligonucleotides were treated with 10 mM iodoacetamide (+IAA) or EtOH (−IAA) in standard reaction conditions (50% DMSO, 50 mM sodiumphosphate buffer, pH 8) for 15 min at 50° C. The reaction was stopped by addition of 20 mM DTT, followed by ethanol precipitation. RT primer (see Table for sequence) was 5′ radiolabeled using γ-^32P-ATP (Perkin-Elmer) and T4-polynucleotide kinase (NEB), followed by denaturing polyacrylamide gel-purification. 640 nM γ-^32P-RT primer was annealed to 400 nM 5L-let-7-3L or 5L-let-7-s^4Up9-3L in 2× annealing buffer (500 mM KCl, 50 mM Tris pH 8.3) in a PCR machine (3 min 95° C., 30 sec 85° C. Ramp 0.5° C./s, 5 min 25° C. Ramp 0.1° C./s). Reverse transcription was performed using Superscript II (Invitrogen), Superscript III (Invitrogen), or Quant-seq RT (Lexogen) as recommended by the manufacturer. For dideoxynucleotide reactions, a final concentration of 500 μM ddNTP (as indicated) was added to RT reactions. Upon completion, RT reactions were resuspended in formamide loading buffer (Gel loading buffer II, Thermo Fisher Scientific) and subjected to 12.5% denaturing polyacrylamide gel electrophoresis. Gels were dried, exposed to storage phosphor screen (PerkinElmer), imaged on a Typhoon TRIO variable mode imager (Amersham Biosciences), and quantified using ImageQuant TL v7.0 (GE Healthcare). […]\nFor sequencing analysis of synthetic RNA samples (FIG. 5) barcoded libraries were demultiplexed using Picard Tools BamIndexDecoder v1.13 allowing 0 mismatches in the barcode. […] Remaining aligned reads were converted to pileup format. […] Output table was analyzed and plotted in Excel v15.22 (Microsoft) and Prism v7.0a (GraphPad). […]"}, "MOLM-13 cells": {"test_system": "MOLM-13 cells", "assay": "SLAM-seq transcriptional response to NVP-2 and JQ1 in MOLM-13 cells", "type": "cell-based, human", "method": "(§1) All SLAM-seq assays were performed at 60-70% confluency for adherent cells or 60% of the maximum cell density counted on a hemocytometer for suspension cells. 5-7 h prior to each assay, growth medium was aspirated and replaced. Unless stated otherwise, cells were pre-treated with indicated small molecule inhibitors or 100 μM IAA for 30 minutes to pre-establish full target inhibition or degradation. Newly synthesized RNA was labeled for indicated time spans (45′ or 60′) at a final concentration of 100 μM 4-thiouridine (s^4U, Carbosynth). Adherent cells were harvested by direct snap-freezing of plates on dry ice. Suspension cells were spun down and immediately snap-frozen. RNA extraction was performed using the RNeasy Plus Mini Kit (Qiagen). Total RNA was subjected to alkylation by iodoacetamide (Sigma, 10 mM) for 15′ and RNA was re-purified by ethanol precipitation. […]\n(§2) All other SLAM-seq experiments were performed in triplicates and analyzed as follows. Differential gene expression calling was performed on raw read counts with 2 T>C conversions using DESeq2 (version 1.14.1) with default settings, and with size factors estimated on corresponding total mRNA reads for global normalization. […]"}, "Pol2-S2 phosphorylation [4]": {"test_system": "Pol2-S2 phosphorylation", "assay": "Pol2-S2 phosphorylation after BETi treatment in K562 cells", "type": "cell-based, human", "details": "high-dose (1 or 5 μM)", "method": "(§3) Chemiluminescent detection of primary antibodies was performed using HRP-conjugated secondary antibodies (Cell Signaling Technology, catalog numbers #7074, #7076 and #7077). Alternatively, fluorescence detection of rabbit and mouse primary antibodies was performed on an Odyssey CLx Imaging System (LI-COR Biosciences) using secondary antibodies IRDye 680RD Goat anti-Rabbit IgG and IRDye 800CW Goat anti-Mouse IgG (LI-COR Biosciences).\n(§4) While these findings are in line with the promiscuous binding of BRD4 to active TSS and its physical interaction with core transcriptional machinery, they contrast selective effects observed after BETi treatment in conventional expression analysis. To define immediate transcriptional effects of BETi and compare them to BRD4 degradation, we performed SLAM-seq following treatment with different doses of the BETi JQ1 in K562 cells and the acute myeloid leukemia (AML) cell line MV4-11."}, "K562 cells": {"test_system": "K562 cells", "assay": "SLAM-seq transcriptional response in K562 cells", "type": "cell-based, human", "method": "as §1, §2"}, "Pol2-S2 phosphorylation [5]": {"test_system": "Pol2-S2 phosphorylation", "assay": "Pol2-S2 phosphorylation after BETi treatment in MV4-11 cells", "type": "cell-based, human", "details": "high-dose (1 or 5 μM)", "method": "as §3, §4"}, "MV4-11": {"test_system": "MV4-11", "assay": "SLAM-seq transcriptional response in MV4-11 cells", "type": "cell-based, human", "details": "high-dose (1 or 5 μM)", "method": "as §1, §2"}, "Superscript II": {"biological_target": "T1, Superscript II (Moloney murine leukemia virus, UniProt P03355, D1183G/D1242N/E1221Q)", "T1 construct": "purchased Thermo Fisher Scientific", "assay": "pH-dependent reverse transcription of 5BrU-containing RNA oligonucleotide measured by sequencing", "type": "biochemical", "method": "Further, it has been shown that 5BrU is taken up by cells, phosphorylated, and incorporated into nascent RNA (Larsen et al., Current Protocols in Cytometry. 12 (7.12): 7.12.1-7.12.11, 2001). […] We used […] of the synthetic RNA oligonucleotide which contained a 5BrU modification at a single central position. […] The reverse transcription was performed by Superscript II (Thermo Fisher Scientific) according to the instructions of the manufacturer using the RT DNA oligonucleotide primer (5″-[…]-3″, SEQ ID NO: 9) and 5×RT buffer for which pH was adjusted to pH7, pH8, or pH9, respectively. After reverse transcription, […] reverse transcription product was subjected to PCR amplification using KAPA Real-time Library Amplification Kit (KAPA Biosystems) according to the instructions of the manufacturer, using the DNA oligonucleotides Solexa PCR Fwd (5″-[…]-3′, SEQ ID NO: 10) and Solexa IDX rev (5′-[…]-3′, SEQ ID NO: 11; NNNNNN indicates the position of the barcode-nucleotides). The amplified libraries were sequenced by high-throughput sequencing using the Illumina MiSeq platform. The conversion rates for the 5BrU nucleotide were determined by counting the frequency of nucleotide A (adenine), G (guanine), and C (cytosine) other than the expected majority readout of T (thymine) at the position of 5BrU.\nThe pH-dependent conversion rates of 5BrU, or T in the final readout, to A (T>A conversion) show a 1.1-fold and 1.4-fold increase with an increase of pH during reverse transcription to pH 8 and pH 9 respectively compare to the background conversion rate of 3·10^−4 at pH 7 (FIG. 37C). The T>G conversion increases by 1.2- and 1.9-fold compare to the lower background conversion rate of 1·10^−4 at pH 7. In contrast, the T>C conversion rate increases by 2.2-fold and 4.3-fold compare to the background conversion rate of 3·10^−4 at pH 7. The signature of the pH dependent changes in conversion rates is characteristic for the 5BrU in the RNA and can be used to identify the number of 5BrU which are incorporated into nascent RNA during transcription."}},
  "data": [
    {"compound": "O=C(O)Cc1c[nH]c2ccccc12", "note": "[auxin, indole-3-acetic acid]", "values": [
      {"measurement": "time to complete degradation of MYC", "setting": "MYC [1]", "value": "less than 30 ′"},
      {"measurement": "time to near complete degradation of BRD4", "setting": "BRD4", "value": "≤ 30 ′"},
      {"measurement": "time to degradation of MYC", "setting": "MYC [2]", "value": "less than 30 ′"}
    ]},
    {"compound": "4-thiouridine [s^4U]", "values": [
      {"measurement": "conversion observed", "setting": "[3]", "value": "G to A conversion"}
    ]},
    {"compound": "COC[C@@H](C)NC1CCC(Nc2cc(-c3cccc(NCC4(C#N)CCOCC4)n3)c(Cl)cn2)CC1", "note": "(some centres unmarked) [NVP-2]", "values": [
      {"measurement": "transcriptional response", "setting": "MOLM-13 cells; high-dose, 60 nM", "value": "globally suppressed transcription"},
      {"measurement": "transcriptional response", "setting": "MOLM-13 cells; intermediate dose, 6 nM", "value": "selective transcriptional responses"}
    ]},
    {"compound": "Cc1sc2c(c1C)C(c1ccc(Cl)cc1)=N[C@@H](CC(=O)OC(C)(C)C)c1nnc(C)n1-2", "note": "[JQ1]", "values": [
      {"measurement": "Pol2-S2 phosphorylation", "setting": "Pol2-S2 phosphorylation [4]", "value": "globally reduced Pol2-S2 phosphorylation"},
      {"measurement": "direct transcriptional response", "setting": "K562 cells; 200 nM", "value": "selective deregulation of a small number of transcripts"},
      {"measurement": "direct transcriptional response", "setting": "K562 cells; high-dose (1 or 5 μM)", "value": "broadly suppressed transcription"},
      {"measurement": "Pol2-S2 phosphorylation", "setting": "Pol2-S2 phosphorylation [5]", "value": "globally reduced Pol2-S2 phosphorylation"},
      {"measurement": "direct transcriptional response", "setting": "MV4-11", "value": "broadly suppressed transcription"}
    ]},
    {"compound": "O=c1[nH]c(=O)n([C@@H]2O[C@H](CO)[C@@H](O)[C@H]2O)cc1Br", "note": "[5BrU, 5-Bromouridine]", "values": [
      {"measurement": "T>A background conversion rate", "setting": "Superscript II; pH 7", "value": "3·10^−4"},
      {"measurement": "T>C background conversion rate", "setting": "Superscript II; pH 7", "value": "3·10^−4"},
      {"measurement": "T>G background conversion rate", "setting": "Superscript II; pH 7", "value": "1·10^−4"},
      {"measurement": "increase of T>A conversion rate relative to pH 7", "setting": "Superscript II; pH 8", "value": 1.1, "unit": "fold"},
      {"measurement": "increase of T>C conversion rate relative to pH 7", "setting": "Superscript II; pH 8", "value": 2.2, "unit": "fold"},
      {"measurement": "increase of T>G conversion rate relative to pH 7", "setting": "Superscript II; pH 8", "value": 1.2, "unit": "fold"},
      {"measurement": "increase of T>A conversion rate relative to pH 7", "setting": "Superscript II; pH 9", "value": 1.4, "unit": "fold"},
      {"measurement": "increase of T>C conversion rate relative to pH 7", "setting": "Superscript II; pH 9", "value": 4.3, "unit": "fold"},
      {"measurement": "increase of T>G conversion rate relative to pH 7", "setting": "Superscript II; pH 9", "value": 1.9, "unit": "fold"}
    ]}
  ]
}
